From US20180296530A1, “METHOD FOR TREATING ATOPIC DERMATITIS” (priority 2015, published 2018)

Experiments:
[1] = system: DNCB-induced AD mouse model; experiment: Example 5: dermatitis severity, topical melatonin in DNCB-induced AD mouse model; type: in vivo, Balb/c mice
Description: Four- to six-week-old Balb/c mice were maintained under specific pathogen-free conditions. Animals were housed in an air-conditioned animal room (25±1° C.; relative humidity 40±5%) and were fed a laboratory diet and distilled water. Animal care and handling protocols were approved by the Animal Committee of the College of Medicine, Taiwan University, and all procedures were conducted in accordance with the U.S. National Institute of Health guidelines.
The protocol for establishing an AD mouse model in this Example was modified from those described previously. Briefly, referring to FIG. 4, DNCB-induced AD mouse model was prepared by the repeated applications of 20 μL of 1% DNCB in acetone/olive oil (4:1) to the outer and inner surfaces of mouse ears and 100 μL of the same solution to the shaved back skin once on days 1, 2, and 3. Mice of Control group were treated with the identical volumes of vehicle. […]
Macroscopic assessment of the severity of dermatitis was determined by a scoring method as described previously. Briefly, the degree of each sign were scored as 0 (none), 1 (mild), 2 (moderate), and 3 (severe). […] Ear thickness was measured with a thickness gauge (Digimatic Indicator, Mitsutoyo, Tokyo). […]

[2] = Clinical trial: nocturnal urinary 6-sulfatoxymelatonin by ELISA; type: in vivo, human; conditions: after treatment with melatonin compared with placebo, P<0.001
Description: The first urine sample on the morning after each actigraphic examination was obtained. Levels of urinary 6-sulfatoxymelatonin were assayed by enzyme-linked immunosorbent assay with a commercialized kit (IBL International GmbH) and were used to represent the melatonin level throughout the previous night.

[3] = system: Patients aged 1 to 18 years with physician-diagnosed AD and sleep problems; experiment: Clinical trial: sleep evaluated by actigraphy; type: in vivo, human
Description: Patients aged 1 to 18 years with physician-diagnosed AD involving at least 5% of the total body surface area were recruited from the pediatric and dermatology outpatient departments of the National Taiwan University Hospital from Aug. 1, 2012, through Jan. 31, 2013. Follow-up was completed on Apr. 13, 2013. Those patients with sleep problems occurring more than 3 days per week during the previous 3 months were eligible. […] They were then randomized to receive oral melatonin, 3 mg/d (General Nutrition Corporation), or placebo (Standard Chem & Pharm Co, Ltd) at bedtime for 4 weeks. After a 2-week washout period, participants crossed to the alternate treatment. Sleep was evaluated by actigraphy (Mini-Mitter Actiwatch; Philips-Respironics). Each participant wore the actigraphic device on the nondominant wrist for 3 consecutive nights starting 3 nights before each treatment period and for the last 3 nights of each treatment period. In a subgroup of patients who offered consent, polysomnography was performed on the night before the first day and on the last night of each treatment period.

IL-4 = experiment: Example 5: dorsal skin IL-4 mRNA by RT-PCR; type: in vivo, Balb/c mice
Description: (§1) The protocol for establishing an AD mouse model in this Example was modified from those described previously. Briefly, referring to FIG. 4, DNCB-induced AD mouse model was prepared by the repeated applications of 20 μL of 1% DNCB in acetone/olive oil (4:1) to the outer and inner surfaces of mouse ears and 100 μL of the same solution to the shaved back skin once on days 1, 2, and 3. Mice of Control group were treated with the identical volumes of vehicle.
(§2) The DNCB-sensitized mice were randomly assigned to one of three groups: DNCB (Positive control), DNCB+3% topical melatonin (Treatment: low-dose), DNCB+5% topical melatonin (Treatment: high-dose). Each group (including Control group) consisted of 5 mice. From days 9 to 19, sensitized mice were challenged by applying 0.5% DNCB to the skin surfaces. For the two groups treated with topical melatonin groups, 0.3 mg of topical melatonin ointment (3% or 5% melatonin in Vaseline) was given together with DNCB during the challenge period. […]
(§3) Blood and dorsal skin of each mouse were collected on the last day of the experiment (Day 20) and stored at −80° C. until use. Serum IgE levels were measured using the ImmunoCAP fluorescence enzyme immunoassay (Phadia AB, Sweden) according to the manufacturer's instructions. The dorsal skin mRNA expression of the cytokines IL-4, IL-13, and IL-17 were measured by RT-PCR.

IL-17 = experiment: Example 5: dorsal skin IL-17 mRNA by RT-PCR; type: in vivo, Balb/c mice
Description: as §1, §2, §3

[4] = system: Patients aged 1 to 18 years with physician-diagnosed AD; experiment: Clinical trial: polysomnography in a subgroup; type: in vivo, human; conditions: melatonin vs placebo, P>0.05
Description: Sleep was evaluated by actigraphy (Mini-Mitter Actiwatch; Philips-Respironics). Each participant wore the actigraphic device on the nondominant wrist for 3 consecutive nights starting 3 nights before each treatment period and for the last 3 nights of each treatment period. In a subgroup of patients who offered consent, polysomnography was performed on the night before the first day and on the last night of each treatment period.

[5] = after oral melatonin 3 mg/d at bedtime for 4 weeks, mean, actigraphy
[6] = after vs before oral melatonin 3 mg/d, 4 weeks, mean
[7] = melatonin phase, before treatment, mean, actigraphy
[8] = melatonin vs placebo, adjusted for age and sex
[9] = 5% melatonin treatment compared with 3% melatonin treatment

COc1ccc2[nH]cc(CCNC(C)=O)c2c1 [Melatonin, melatonin]
gross findings of dermatitis ([1]; DNCB-stimulated mice treated with melatonin, FIG. 5, less skin erythema, less skin excoriation, improved hair growth): dermatitis was improved | Dermatitis clinical score ([1]; after topical melatonin treatment, decreased from 12, total score 0 to 12, Day 20, concentration not given): 3 | Nocturnal urinary 6-sulfatoxymelatonin levels [2]: significantly increased | sleep-onset latency, Wilcoxon signed rank test ([3]; FIG. 2D, almost unchanged in placebo treatment): decreased the sleep-onset latency significantly | patients who believed that their sleep had improved ([3]; after melatonin treatment, 17 of 37 (placebo 13 of 38 [34%])): 46% | Fragmentation index, After ([3]; after oral melatonin 3 mg/d at bedtime for 4 weeks, mean): 13.6 | Mobility in sleep, After [3, 5]: 9.7% | Sleep efficiency, After [3, 5]: 76.7% | Sleep-onset latency, After [3, 5]: 21.6 min | Total sleep time, After [3, 5]: 390.1 min/night | WASO (wake after sleep onset), After [3, 5]: 74.5 min | Wake in sleep interval, After [3, 5]: 15.6% | Fragmentation index, Difference [3, 6]: −2.4 | Mobility in sleep, Difference [3, 6]: −2.0% | Sleep efficiency, Difference [3, 6]: 2.4% | Sleep-onset latency, Difference [3, 6]: -23.4 min | Total sleep time, Difference [3, 6]: 10.0 min/night | WASO (wake after sleep onset), Difference [3, 6]: -9.0 min | Wake in sleep interval, Difference [3, 6]: −2.1% | effect on the other sleep variables measured by actigraphy ([3]; between the melatonin and placebo phases): did not differ significantly | decrease of the sleep-onset latency more than placebo ([3]; linear mixed-effects model, adjusted for age and sex): 21.4 min | sleep-onset latency, first treatment period, after ([3]; melatonin group, first treatment period, after oral 3 mg/d for 4 weeks, actigraphy): 24.4 min | sleep-onset latency, first treatment period, before ([3]; melatonin group, first treatment period, before treatment, actigraphy): 42.8 min | sleep-onset latency, second treatment period, after ([3]; melatonin group, second treatment period, after oral 3 mg/d for 4 weeks, actigraphy): 19.1 min | sleep-onset latency, second treatment period, before ([3]; melatonin group, second treatment period, before treatment, actigraphy): 46.7 min | Mobility in sleep, Before [3, 7]: 11.6% | Sleep efficiency, Before [3, 7]: 74.4% | Sleep-onset latency, Before [3, 7]: 44.9 min | Total sleep time, Before [3, 7]: 380.1 min/night | WASO (wake after sleep onset), Before [3, 7]: 83.6 min | Wake in sleep interval, Before [3, 7]: 17.6% | Fragmentation index, Before ([3]; melatonin phase, before treatment, mean, greater scores indicate more fragmented sleep): 16.0 | effect on sleep efficiency, wake time during sleep, or sleep fragmentation ([3]; melatonin treatment compared to placebo, FIG. 3): no significant effect | Fragmentation index, Difference of Treatment Effect From the Linear Mixed-Effects Model, Mean [3, 8]: −3.2 | Mobility in sleep, Difference of Treatment Effect From the Linear Mixed-Effects Model, Mean [3, 8]: −2.9% | Sleep efficiency, Difference of Treatment Effect From the Linear Mixed-Effects Model, Mean [3, 8]: 2.2% | Sleep-onset latency, Difference of Treatment Effect From the Linear Mixed-Effects Model, Mean [3, 8]: -21.4 min | Total sleep time, Difference of Treatment Effect From the Linear Mixed-Effects Model, Mean [3, 8]: 24.8 min/night | WASO, Difference of Treatment Effect From the Linear Mixed-Effects Model, Mean [3, 8]: -8.2 min | Wake in sleep interval, Difference of Treatment Effect From the Linear Mixed-Effects Model, Mean [3, 8]: −2.3% | shortening of sleep-onset latency, mean ([3]; oral melatonin treatment): 23.4 min | shortening of sleep-onset latency, mean percent ([3]; oral melatonin treatment): 52.1% | skin mRNA expression of IL-4, dose-response (IL-4; [9]): decreased more | skin mRNA expression of IL-4 (IL-4; after topical melatonin treatment (3% or 5%), FIG. 11A): decreased | skin mRNA expression of IL-17, dose-response (IL-17; [9]): decreased more | skin mRNA expression of IL-17 (IL-17; after topical melatonin treatment (3% or 5%), FIG. 11B): decreased | effect on the stages of sleep and limb movement [4]: did not have a significantly different effect
